Measurements published in PMC10952535, “The differential binding and biological efficacy of auxin herbicides” (Pest Management Science, 2022).
Where two headings read alike, the source gives them in different places.

Assays:
[1] = system: Arabidopsis thaliana afb5‐1 seedlings; test: Root growth inhibition bioassay, afb5‐1 mutant; assay type: in vivo; conditions: afb5‐1 vs WT dose-response, 8 days
Protocol: A. thaliana seed was surface sterilized in 10 mL of 50% bleach and two drops of Tween‐20 for 12 min and rinsed six times with sterile water. Sterile growth media consisted of half‐strength Murashige and Skoog salts supplemented with 0.4% agar and 0.8% sucrose. In a laminar flow hood, 8 mL of liquid media was transferred to sterile test‐tubes placed in a heat block to maintain media in a liquid state. Compounds were previously diluted in 50/50 DMSO/water to a known molar concentration. A 50‐μL aliquot of diluted compound was added to each tube to give a specified final concentration, normally 10, 1, 0.1, 0.01 or 0.001 μM. A single tube was treated with solvent only as a control. Test compounds were mixed into the media by pipetting up and down three times, then 6 mL of media with test compound was added to one well in a six‐well plate, working from low‐to‐high concentration, and allowed to solidify in the laminar flow hood. Approximately 15 sterilized seeds were placed on the solidified surface and the remaining 2 mL of liquid media was added to cover and disperse seeds. Plates were sealed with paraffin and moved to a Conviron growth chamber set to 60% humidity, 25 °C and light intensity 100 μE m^2 s^−1 with a 16 h photoperiod. After 8 days primary root measurements of five random plants were taken by removing plants from media and measuring with a ruler. Treatments were compared against the solvent control to determine percentage root growth inhibition. Each experiment was run twice and averages were combined for analysis.

[2] = target: T1, AtTIR1 (Arabidopsis thaliana, UniProt Q570C0); test: SPR relative binding (co-receptor complex formation with Aux/IAA7 degron), AtTIR1; conditions: 50 μM compound; for % of IAA binding: normalized to IAA = 100%; for Relative binding (in words): compared to IAA
T1 construct: His10 (N, cleaved yes); eGFP (N, cleaved yes); FLAG (N, cleaved yes); made in house; host or cells: baculovirus; Trichoplusia ni Hi5 cells (virus generated in Sf9)
Protocol: (§1) Auxin binding assays using surface plasmon resonance (SPR) were performed on a Biacore 2000 as described previously.[3], [18], [23] Protein was stored on ice and protein concentrations were assayed by A280 nm measurement (nanodrop, Thermo Scientific). Briefly, AtAux/IAA7 degron peptide was immobilized on streptavidin‐coated SPR chips, and binding was measured in the presence of IAA or auxin analogue by recruitment of the TIR1/AFB protein from solution as the co‐receptor complex formed on the chip. Kinetic analyses were performed by single cycle kinetics on a Biacore T200 (Cytiva Life Sciences), titrating compounds against a fixed concentration of TIR1 before injection. The degron peptide density on the chips was controlled so that R max < 300 Response UNits (RU).

[3] = target: T2, AtAFB5 (Arabidopsis thaliana, UniProt Q9LTX2); test: SPR relative binding (co-receptor complex formation with Aux/IAA7 degron), AtAFB5; conditions: 50 μM compound; for % of IAA binding: normalized to IAA = 100%; for Relative binding (in words): compared to IAA
T2 construct: His10 (N, cleaved yes); eGFP (N, cleaved yes); FLAG (N, cleaved yes); made in house; host or cells: baculovirus; Trichoplusia ni Hi5 cells (virus generated in Sf9)
Protocol: as §1

[4] = system: Arabidopsis thaliana afb5‐1 mutant line; assay type: in vivo; conditions: for GR50 (DW % of NT) / GR50 (visual injury): afb5‐1, foliar application; for GR50 (DW % of NT): dry weight at 14 DAT; for Resistance ratio (afb5‐1 vs WT), DW: ratio of dry weight GR50 values; for Resistance ratio (afb5‐1 vs WT), DW / Resistance ratio (afb5‐1 vs WT), visual injury: foliar application; for Resistance ratio (afb5‐1 vs WT), visual injury: ratio of visual injury GR50 values
Protocol: (§2) Bioassays were carried out with the model species Arabidopsis thaliana. The wild type (WT) Col‐0 line was compared to an afb5‐1 mutant line in a Col‐0 background containing a missense mutation of R609K.[11] A. thaliana seeds were sown on Metro‐mix 360 potting mix (Sungro Horticulture) supplemented with vermiculite and stratified for 3 days at 4 °C in the dark. Flats were moved to a growth chamber (as above) and a plastic lid was placed on the flat. On germination, the lid was removed. After 2 weeks in the growth chamber, seedlings were transplanted into 3‐in. pots with Metro‐mix 360 potting mix and moved to a greenhouse. The greenhouse was maintained at a day/night temperature of 23/22 °C and supplemented with light to complete a 16 h photoperiod. Plants were allowed to recover from transplanting for 1 week prior to applications. A. thaliana seedlings were sprayed with test compounds at five rates with four replications. Tests included nontreated and solvent check controls. Individual compound doses varied and were based on plate test data or anecdotal potency. Compounds were formulated as technical material and were initially dissolved in 1 part 97:3 (v/v) acetone: dimethylsufoxide (DMSO) followed by 5 parts 1.5% (v/v) Agridex crop oil concentrate in distilled water to give a final concentration of 1.25% (v/v) Agridex. Formulated compounds were sprayed at a volume of 187 L ha^−1 at a spray height of 43 cm above the plants with an overhead Mandel track sprayer set with 8002 E Tee jet nozzle. Plants were treated at rosette stage just prior to or at initiation of bolting. After spray application, plants were allowed to dry then moved back to the greenhouse. Plants were grown in the greenhouse (same conditions as above) for 2 weeks until harvest. Visual injury/growth reduction observations were made at 7 and 14 days after treatment (DAT) and scored where 0% = no growth reduction and 100% = complete growth reduction or plant death. At 14 DAT the plants were harvested and dried to collect dry weight (DW) biomass.
(§3) The data collected in the foliar application of compounds generated a measure of sensitivity or dose response. The data was analyzed by regression in JMP 10.0 and fit to a nonlinear exponential three parameter fit model:
(§4) where a is the asymptote, b is the scale and c is the rate of growth. The model was used to determine the herbicidal dose that caused 50% reduction in growth (GR50). GR50 values were compared between mutant and WT to give an indication of fold resistance over WT (Table 3). A log‐logistic model[24] was also used to fit the data and gave similar GR50 values with greater standard errors without changing the pattern of responsiveness.

[5] = system: Arabidopsis thaliana wild type (WT) Col‐0; test: Foliar efficacy bioassay, wild type; assay type: in vivo; conditions: foliar application; for GR50 (DW % of NT): dry weight at 14 DAT
Protocol: as §2, §3, §4

[6] = target: T3, AtAFB2 (Arabidopsis thaliana, UniProt Q9LW29); test: SPR single cycle kinetics, AtAFB2; assay type: binding
T3 construct: His10 (N, cleaved yes); eGFP (N, cleaved yes); FLAG (N, cleaved yes); made in house; host or cells: baculovirus; Trichoplusia ni Hi5 cells (virus generated in Sf9)
Protocol: as §1

[7] = target: T3, AtAFB2; test: SPR relative binding (co-receptor complex formation with Aux/IAA7 degron), AtAFB2; conditions: 50 μM compound; for % of IAA binding: normalized to IAA = 100%; for Relative binding (in words): compared to IAA
Protocol: as §1

[8] = target: T2, AtAFB5; test: biochemical; assay type: binding
Protocol: as §1

[9] = target: T1, AtTIR1; test: biochemical; assay type: binding
Protocol: as §1

[10] = averaged equilibrium dissociation constant, SPR single cycle kinetics, read-out: Ave KD

T1 sequence (Q570C0 whole entry, other chains not shown): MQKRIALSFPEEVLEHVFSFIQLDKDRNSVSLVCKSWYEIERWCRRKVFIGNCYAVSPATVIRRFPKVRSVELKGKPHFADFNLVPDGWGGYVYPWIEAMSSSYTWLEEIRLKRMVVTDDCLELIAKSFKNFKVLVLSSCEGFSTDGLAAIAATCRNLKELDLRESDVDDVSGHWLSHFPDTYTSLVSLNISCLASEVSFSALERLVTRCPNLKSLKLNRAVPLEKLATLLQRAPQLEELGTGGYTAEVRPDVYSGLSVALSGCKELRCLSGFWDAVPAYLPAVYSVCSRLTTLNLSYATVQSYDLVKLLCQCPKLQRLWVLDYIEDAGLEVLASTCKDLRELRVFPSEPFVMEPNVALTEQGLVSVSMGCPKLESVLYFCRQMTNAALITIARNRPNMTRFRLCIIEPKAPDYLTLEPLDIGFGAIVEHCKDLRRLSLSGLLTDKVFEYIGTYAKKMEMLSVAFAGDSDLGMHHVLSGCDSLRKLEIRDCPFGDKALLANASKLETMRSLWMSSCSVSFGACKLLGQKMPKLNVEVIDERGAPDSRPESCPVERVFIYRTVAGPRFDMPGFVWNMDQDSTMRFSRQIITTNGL
T1 sequence (Q39255 whole entry partner, other chains not shown): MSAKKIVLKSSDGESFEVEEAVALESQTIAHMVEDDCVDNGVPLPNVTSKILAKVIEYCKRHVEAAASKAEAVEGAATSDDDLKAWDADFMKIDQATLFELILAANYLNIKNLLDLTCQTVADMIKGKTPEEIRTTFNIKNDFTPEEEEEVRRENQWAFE
T3 sequence (Q9LW29 whole entry, other chains not shown): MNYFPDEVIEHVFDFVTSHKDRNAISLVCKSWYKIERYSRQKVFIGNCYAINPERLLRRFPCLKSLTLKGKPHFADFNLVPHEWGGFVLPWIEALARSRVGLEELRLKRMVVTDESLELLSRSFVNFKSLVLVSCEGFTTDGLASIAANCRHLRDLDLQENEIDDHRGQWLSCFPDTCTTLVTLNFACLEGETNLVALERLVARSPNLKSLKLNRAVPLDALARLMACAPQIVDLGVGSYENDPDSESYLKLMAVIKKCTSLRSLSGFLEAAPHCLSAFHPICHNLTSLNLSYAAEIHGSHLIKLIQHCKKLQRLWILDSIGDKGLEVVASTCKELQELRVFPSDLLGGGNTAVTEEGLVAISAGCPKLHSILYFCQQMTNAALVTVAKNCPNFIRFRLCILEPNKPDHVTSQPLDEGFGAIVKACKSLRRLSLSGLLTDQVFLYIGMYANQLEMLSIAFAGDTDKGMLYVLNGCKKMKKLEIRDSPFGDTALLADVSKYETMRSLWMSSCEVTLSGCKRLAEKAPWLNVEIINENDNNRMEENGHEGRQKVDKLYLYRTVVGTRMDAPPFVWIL
T3 sequence (Q39255 whole entry partner, other chains not shown): as the sequence (Q39255 whole entry partner, other chains not shown) above
T2 sequence (Q9LTX2 whole entry, other chains not shown): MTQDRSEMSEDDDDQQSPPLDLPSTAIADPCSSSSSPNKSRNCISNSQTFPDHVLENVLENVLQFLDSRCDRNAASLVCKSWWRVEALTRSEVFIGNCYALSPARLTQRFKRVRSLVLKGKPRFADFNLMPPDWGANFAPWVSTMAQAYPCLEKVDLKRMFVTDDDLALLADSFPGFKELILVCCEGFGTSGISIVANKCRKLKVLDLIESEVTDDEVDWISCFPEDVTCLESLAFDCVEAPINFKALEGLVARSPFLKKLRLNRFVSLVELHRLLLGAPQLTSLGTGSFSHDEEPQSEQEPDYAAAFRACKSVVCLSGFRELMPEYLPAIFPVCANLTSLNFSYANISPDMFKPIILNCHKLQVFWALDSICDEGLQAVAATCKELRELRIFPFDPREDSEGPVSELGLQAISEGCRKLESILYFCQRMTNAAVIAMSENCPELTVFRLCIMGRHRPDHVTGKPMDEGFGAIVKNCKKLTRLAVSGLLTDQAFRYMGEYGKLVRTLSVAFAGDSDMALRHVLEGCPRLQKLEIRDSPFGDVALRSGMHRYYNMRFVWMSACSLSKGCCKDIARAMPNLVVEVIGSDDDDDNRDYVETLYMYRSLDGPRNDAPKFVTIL
T2 sequence (Q39255 whole entry partner, other chains not shown): as the sequence (Q39255 whole entry partner, other chains not shown) above

| Fold higher affinity for TIR1 ([9]; from KD values, TIR1 versus other receptors) [fold] | SMILES | Resistance of afb5‐1 in root growth inhibition (in words) [1] | % of IAA binding [2] [%] | % of IAA binding [3] [%] | GR50 (DW % of NT) [4] [g ai ha^−1] | GR50 (visual injury) [4] [g ai ha^−1] | Resistance ratio (afb5‐1 vs WT), DW [4] | Resistance ratio (afb5‐1 vs WT), visual injury [4] | GR50 (DW % of NT) [5] [g ai ha^−1] | GR50 (visual injury) [5] [g ai ha^−1] | Kd [6] [µM] | % of IAA binding [7] [%] | Kd [8] [µM] | Kd [9] [µM] | Relative binding (in words) [2] | Relative binding (in words) [3] | Relative binding (in words) [7] | Kd [6, 10] [µM] | Kd [8, 10] [µM] | Kd [9, 10] [µM] |
| --- | --- | --- | --- | --- | --- | --- | --- | --- | --- | --- | --- | --- | --- | --- | --- | --- | --- | --- | --- | --- |
|  | O=C(O)Cc1cccc2ccccc12 [1‐NAA, 1‐napthaleneacetic acid] | No resistance |  |  |  |  |  |  |  |  |  |  |  |  |  |  |  |  |  |  |
|  | O=C(O)COc1ccc(Cl)cc1Cl [2,4‐D, 2,4‐dichlorophenoxyacetic acid] | No resistance | 29 | 40 | 9.9 | 40.5 | 2.5 | 2.1 | 3.9 | 19.2 | 392 | 22 | 152 | 229 |  |  |  |  |  |  |
|  | Nc1nc(C2CC2)nc(C(=O)O)c1Cl [Aminocyclopyrachlor] | considerable resistance |  |  | 8.3 | 36.8 | 1.9 | 5.3 | 4.4 | 7 |  |  |  |  |  |  |  |  |  |  |
|  | Nc1cc(Cl)nc(C(=O)O)c1Cl [Aminopyralid] | considerable resistance |  |  | 68.7 |  | 20.2 |  | 3.4 | 40.1 |  |  |  |  | relatively low binding | relatively low binding | relatively low binding |  |  |  |
|  | O=C(O)c1nc(Cl)ccc1Cl [Clopyralid] | considerable resistance |  |  | 3999 | 4259 |  | 1.6 | 497 | 2698 |  |  |  |  | relatively low binding | relatively low binding | relatively low binding |  |  |  |
|  | Nc1c(F)c(-c2ccc(Cl)cc2)nc(C(=O)O)c1Cl [DAS534] |  |  |  | 1.2 | 4.3 |  | 10.8 |  | 0.4 |  |  |  |  |  | strong bias for binding to AtAFB5 |  |  |  |  |
|  | COc1c(Cl)ccc(Cl)c1C(=O)O [Dicamba] | No resistance |  |  | 60.8 | 290 | 3.7 | 1.7 | 16.5 | 169 |  |  |  |  | low binding | low binding | low binding |  |  |  |
|  | COc1c(Cl)ccc(-c2nc(C(=O)O)c(Cl)c(N)c2F)c1F [Florpyrauxifen] | considerable resistance |  |  | 1 | 5.2 | 10 | 7.4 | 0.1 | 0.7 |  |  |  |  |  |  |  | 105 | 2.7 | 62 |
|  | Nc1c(Cl)c(F)nc(OCC(=O)O)c1Cl [Fluroxypyr] |  |  |  | 84.1 | 310 | 2.4 | 1.3 | 35.7 | 234 |  |  |  |  | lower binding than IAA | lower binding than IAA | lower binding than IAA | 45 | 95 | 18 |
|  | COc1c(Cl)ccc(-c2cc(N)c(Cl)c(C(=O)O)n2)c1F [Halauxifen] | considerable resistance | 10 | 170 | 0.6 | 2.4 | 7.5 | 6 | 0.08 | 0.4 |  | < 5 |  |  |  |  |  | 333 | 2.4 | 128 |
| 4 | O=C(O)Cc1c[nH]c2ccccc12 [IAA, indole‐3‐acetic acid] |  |  |  |  |  |  |  |  |  |  |  |  |  |  |  |  | 12.6 | 33 | 7.9 |
|  | Cc1cc(Cl)ccc1OCC(=O)O [MCPA, 2‐methyl‐4‐chlorophenoxyacetic acid] |  |  |  |  |  |  |  |  |  |  |  |  |  | lower binding | lower binding | lower binding |  |  |  |
|  | O=C(O)COc1nc(Cl)c(Cl)cc1Cl [Triclopyr] |  |  |  | 18.4 | 41.8 | 3.9 | 1.3 | 4.7 | 31.8 |  |  |  |  | lower binding than IAA | lower binding than IAA | lower binding than IAA |  |  |  |
|  | CC(Oc1ccc(Cl)cc1Cl)C(=O)O (centres unmarked) [dichlorprop] |  |  |  |  |  |  |  |  |  |  |  |  |  | lower binding | lower binding | lower binding |  |  |  |
|  | Cc1cc(Cl)ccc1OC(C)C(=O)O (centres unmarked) [mecoprop] |  |  |  |  |  |  |  |  |  |  |  |  |  | lower binding | lower binding | lower binding |  |  |  |
